The term IC50 denotes the concentration at which inhibition is half-maximal. A lower IC50 goes with greater potency.

Our source for the IC50 values is patent publication US10703757B2, “Compounds and methods for CDK8 modulation and indications therefor” (Plexxikon Inc., priority 2016, dated 2020).

Assay [1] concerns CDK8 (phosphorylation of STAT1 at serine 727 in A549 cells). Description: Cell based Phospho-STAT1 assay (IFNγ-stimulated A549 cells, AlphaLISA). To be noted: Homo sapiens, A549, A549 cells, phospho-STAT1 after IFNγ stimulation. The method in brief:
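A549 cells given serial compound dilutions for 1 h at 37 °C, then stimulated with IFNγ at 10 ng/mL final for 30 min. Lysate STAT1 Ser727 phosphorylation measured by AlphaLISA; % inhibition vs stimulated/unstimulated DMSO controls, IC50 by nonlinear regression.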
In general terms: Bead proximity is the source of the signal in Alpha formats.

Assay [2] concerns CDK8 (TCF/LEF luciferase reporter in HCT116 cells). The assay is described as follows: Cell based TCF/LEF reporter assay (HCT116+TCF/LEF luciferase). To be noted: Homo sapiens, HCT-116, 24 h. An excerpt:
Determine Inhibitor Activity Against CDK8 in Cell Based TCF/LEF Reporter Assay
The colorectal carcinoma cell line HCT116 was stably transduced with lentivirus encoding the TCF/LEF promoter upstream of a luciferase reporter gene (Qiagen) and single cell clones expressing this construct (referred to as HCT116+TCF/LEF) were isolated. HCT116 express endogenous mutant β-catenin^3, resulting in up-regulation of transcription through the TCF/LEF promoter. Expression of the TCF/LEF reporter construct in HCT116 results in constitutive expression of luciferase. Treatment of the cells with inhibitors of components of the β-catenin signaling pathway (such as CDK8) results in decreased expression of luciferase. The assay is performed as follows. The HCT116+TCF/LEF cell line is seeded in a 96 well plate in 50 μL of culture media at 1×10^4 cells/well and incubated at 37° C. overnight. Serial dilutions of compounds (in total volume of 50 μL culture media) are added to the cells and incubated at 37° C. for 24 hours. 4 wells of DMSO treated cells serve as high controls and cells treated with 10 uM of the reference compound CCT251545 (a known CDK8 inhibitor)^4 serve as low controls. The viability of the cells is assayed by the addition of […] reagent (Promega) followed by 30 minute incubation at 37° C. and quantification of the fluorescent signal (Ex400/Em505). The luciferase expression is then assayed by the addition of 25 μL ONE-Glo reagent (Promega) followed by 10 minute incubation at room temperature and quantification of the luminescence signal. The luminescence signal is normalized to the fluorescence signal to correct for any loss in cell viability over the 24 hour compound incubation period. The percentage inhibition at individual concentrations relative to high and low controls is calculated. The data are analyzed by using nonlinear regression to generate IC50 values.

`COc1ccc(-c2cnn3ccnc(C4=CCC(C#N)CC4)c23)cc1F` (stereo not shown) [Compound P-0104, 4-(3-(3-fluoro-4-methoxyphenyl)pyrazolo[1,5-a]pyrazin-4-yl)cyclohex-3-ene-1-carbonitrile]: the IC50 in assay [1] and in assay [2] was 0.1 to 100 nM each time. With `CCCS(=O)(=O)Nc1ccc2cc(-c3cnn4cccc(C#CC(C)(C)C(N)=O)c34)ccc2c1` [Compound P-0065, 2,2-dimethyl-4-(3-(6-(propylsulfonamido)naphthalen-2-yl)pyrazolo[1,5-a]pyridin-4-yl)but-2-ynamide], the results for the IC50 in assay [1] and in assay [2] were 0.1 to 100 nM and 100 to 1000 nM, respectively. `CS(=O)(=O)Nc1ccc(-c2cnn3ccnc(C4=CCC(C#N)CC4)c23)cc1` (stereo not shown) [Compound P-0045, N-(4-(4-(4-cyanocyclohex-1-en-1-yl)pyrazolo[1,5-a]pyrazin-3-yl)phenyl)methanesulfonamide]: the figures for the IC50 in assay [1] and in assay [2] were 100 to 1000 nM and 0.1 to 100 nM, respectively.

For the molecule `CC(C)(C#Cc1cccn2ncc(-c3ccc(-c4cnn(CS(C)(=O)=O)c4)cc3)c12)C(N)=O` [Compound P-0460, 2,2-dimethyl-4-(3-(4-(1-((methylsulfonyl)methyl)-1H-pyrazol-4-yl)phenyl)pyrazolo[1,5-a]pyridin-4-yl)but-3-ynamide], the IC50 in assay [1] and in assay [2] was 0.1 to 100 nM throughout.

On to `N#CC1CC=C(c2nccn3ncc(-c4cnn(C5CC5)c4)c23)CC1` (stereo not shown) [Compound P-0076, 4-(3-(1-cyclopropyl-1H-pyrazol-4-yl)pyrazolo[1,5-a]pyrazin-4-yl)cyclohex-3-ene-1-carbonitrile], for which the IC50 in assay [1] and in assay [2] was 100 to 1000 nM each time. Take `N#CC1CC=C(c2c(-c3ccc4c(c3)CNC4=O)cnc3[nH]ccc23)CC1` (stereo not shown) [Compound P-0244, 4-(5-(1-oxoisoindolin-5-yl)-1H-pyrrolo[2,3-b]pyridin-4-yl)cyclohex-3-ene-1-carbonitrile]: the IC50 in assay [1] and in assay [2] was 100 to 1000 nM in each case.

As to `CC(=O)C1CCN(c2cccc3ncc(C#Cc4cnn(C)c4)n23)CC1` [Compound P-0240, 1-(1-(3-((1-methyl-1H-pyrazol-4-yl)ethynyl)imidazo[1,2-a]pyridin-5-yl)piperidin-4-yl)ethan-1-one], the IC50 in assay [1] and in assay [2] was 1000 to 10000 nM in each case.

Consider `COc1ccc2cc(-c3cnn4ccnc(C#CC(C)(C)O)c34)ccc2n1` [Compound P-0198, 4-(3-(2-methoxyquinolin-6-yl)pyrazolo[1,5-a]pyrazin-4-yl)-2-methylbut-3-yn-2-ol], for which the IC50 in assay [1] and in assay [2] was 100 to 1000 nM each time. On to `N#CC1CC=C(c2nccn3ncc(-c4ccc(N5CCOCC5)c(F)c4)c23)CC1` (stereo not shown) [Compound P-0102, 4-(3-(3-fluoro-4-morpholinophenyl)pyrazolo[1,5-a]pyrazin-4-yl)cyclohex-3-ene-1-carbonitrile], for which the IC50 in assay [1] and in assay [2] was 0.1 to 100 nM throughout. Take `Cc1nc2ccc(-c3cnn4cccc(C5=CCC(C#N)CC5)c34)cc2s1` (stereo not shown) [Compound P-0214, 4-(3-(2-methylbenzo[d]thiazol-6-yl)pyrazolo[1,5-a]pyridin-4-yl)cyclohex-3-ene-1-carbonitrile]: the IC50 in assay [1] and in assay [2] was 0.1 to 100 nM throughout.

For `N#CC1CC=C(c2nccn3ncc(-c4ccc(-c5cnn(CCN6CCCC6)c5)cc4)c23)CC1` (stereo not shown) [Compound P-0049, 4-(3-(4-(1-(2-(pyrrolidin-1-yl)ethyl)-1H-pyrazol-4-yl)phenyl)pyrazolo[1,5-a]pyrazin-4-yl)cyclohex-3-ene-1-carbonitrile], the half-inhibitory concentration (IC50) in assay [1] and in assay [2] was 0.1 to 100 nM throughout.

On to `CNC(=O)c1ccc2cc(-c3cnn4cccc(C#CC(C)(C)O)c34)ccc2c1` [Compound P-0222, 6-(4-(3-hydroxy-3-methylbut-1-yn-1-yl)pyrazolo[1,5-a]pyridin-3-yl)-N-methyl-2-naphthamide], for which the IC50 in assay [1] and in assay [2] was 0.1 to 100 nM throughout. As for `N#CC1CCC(c2nccn3ncc(-c4ccc(-c5cnn(CCN6CCCC6)c5)cc4)c23)CC1` (stereo not shown) [Compound P-0017, (1s,4s)-4-(3-(4-(1-(2-(pyrrolidin-1-yl)ethyl)-1H-pyrazol-4-yl)phenyl)pyrazolo[1,5-a]pyrazin-4-yl)cyclohexane-1-carbonitrile], the IC50 in assay [1] and in assay [2] was 0.1 to 100 nM each time. Take `N#CC1CC=C(c2c(-c3ccc4c(cnn4CC4(C(=O)O)CC4)c3)cnc3[nH]ccc23)CC1` (stereo not shown) [Compound P-0108, 1-((5-(4-(4-cyanocyclohex-1-en-1-yl)-1H-pyrrolo[2,3-b]pyridin-5-yl)-1H-indazol-1-yl)methyl)cyclopropane-1-carboxylic acid]: the IC50 in assay [2] fell in the range of 100 to 1000 nM. The same measure, in the same setting: next, `N#CC1CC=C(c2nccn3ncc(-c4ccc(OCC(F)(F)F)c(F)c4)c23)CC1` (stereo not shown) [Compound P-0037, 4-(3-(3-fluoro-4-(2,2,2-trifluoro-ethoxy)phenyl)pyrazolo[1,5-a]pyrazin-4-yl)cyclohex-3-ene-1-carbonitrile]: 100 to 1000 nM.

Take `CC(C)(O)Cn1cc(-c2ccc(-c3cnn4cccc(C#CC(C)(C)C(=O)O)c34)cc2)cn1` [Compound P-0093, 4-(3-(4-(1-(2-hydroxy-2-methylpropyl)-1H-pyrazol-4-yl)phenyl)pyrazolo[1,5-a]pyridin-4-yl)-2,2-dimethylbut-3-ynoic acid]: the IC50 in assay [2] is 100 to 1000 nM. Take `Cc1cc(-c2ccc(-c3cnc4[nH]ccc4c3N3CCC(C#N)CC3)cc2)n[nH]1` [Compound P-0175, 1-(5-(4-(5-methyl-1H-pyrazol-3-yl)phenyl)-1H-pyrrolo[2,3-b]pyridin-4-yl)piperidine-4-carbonitrile]: the IC50 in assay [2] fell in the range of 0.1 to 100 nM. On the same count and under the same terms, as for `O=C(O)C1CC=C(c2cccn3ncc(-c4ccc(-n5ccnn5)cc4)c23)CC1` (stereo not shown) [Compound P-0212, 4-(3-(4-(1H-1,2,3-triazol-1-yl)phenyl)pyrazolo[1,5-a]pyridin-4-yl)cyclohex-3-ene-1-carboxylic acid], the figure is 100 to 1000 nM. Same read-out and setting: as for `N#CC1CCN(c2cccn3ncc(-c4ccc(S(=O)(=O)N5CCCCC5)cc4)c23)CC1` [Compound P-0256, 1-(3-(4-(piperidin-1-ylsulfonyl)phenyl)pyrazolo[1,5-a]pyridin-4-yl)piperidine-4-carbonitrile], the figure is 1000 to 10000 nM. Still for that read-out and setting: next, `CC(C)(C#Cc1cccn2ncc(-c3ccc(N4CCOCC4)c(F)c3)c12)C(=O)O` [Compound P-0092, 4-(3-(3-fluoro-4-morpholinophenyl)pyrazolo[1,5-a]pyridin-4-yl)-2,2-dimethylbut-3-ynoic acid]: 100 to 1000 nM. For `CC(C)(C)n1ncc2cc(-c3cnc4[nH]ccc4c3C3=CCC(C#N)CC3)ccc21` (stereo not shown) [Compound P-0344, 4-(5-(1-(tert-butyl)-1H-indazol-5-yl)-1H-pyrrolo[2,3-b]pyridin-4-yl)cyclohex-3-ene-1-carbonitrile], the IC50 in assay [1] lay in the range of 100 to 1000 nM. Same read-out and setting: next, `Cn1cc(C#Cc2cccn3ncc(-c4ccc(-c5cnn(C)c5)cc4)c23)cn1` [Compound P-0428, 4-((1-methyl-1H-pyrazol-4-yl)ethynyl)-3-(4-(1-methyl-1H-pyrazol-4-yl)phenyl)pyrazolo[1,5-a]pyridine]: 100 to 1000 nM; `FC(F)n1cc(-c2ccc(-c3cnc4cccc(OC5CCSCC5)n34)cc2)cn1` [Compound P-0348, 3-(4-(1-(difluoromethyl)-1H-pyrazol-4-yl)phenyl)-5-((tetrahydro-2H-thiopyran-4-yl)oxy)imidazo[1,2-a]pyridine]: 1000 to 10000 nM; `Cn1cc(-c2ccc(-c3cnc4[nH]cc(Cl)c4c3N3CCC(C#N)CC3)cc2)cn1` [Compound P-0360, 1-(3-chloro-5-(4-(1-methyl-1H-pyrazol-4-yl)phenyl)-1H-pyrrolo[2,3-b]pyridin-4-yl)piperidine-4-carbonitrile]: 0.1 to 100 nM. Same read-out and setting: next, `Cn1cc(Nc2ncc(-c3cnc4cccc(N5CCC6(CC5)C(=O)Nc5ccccc56)n34)cn2)cn1` [Compound P-0453, 1′-(3-(2-((1-methyl-1H-pyrazol-4-yl)amino)pyrimidin-5-yl)imidazo[1,2-a]pyridin-5-yl)spiro[indoline-3,4′-piperidin]-2-one]: 100 to 1000 nM; `Cn1cc(-c2ccc(-c3cnc4cccc(N5CCC(C(N)=O)C5)n34)cc2)cn1` (stereo not shown) [Compound P-0378, 1-(3-(4-(1-methyl-1H-pyrazol-4-yl)phenyl)imidazo[1,2-a]pyridin-5-yl)pyrrolidine-3-carboxamide]: 100 to 1000 nM; `COc1ncc(-c2cnn3cccc(C#CC(C)(C)O)c23)cn1` [Compound P-0288, 4-(3-(2-methoxypyrimidin-5-yl)pyrazolo[1,5-a]pyridin-4-yl)-2-methylbut-3-yn-2-ol]: 100 to 1000 nM.
